Test results as given in publication PMC3689883 (Journal of medicinal chemistry, 2013).

Experiments:
KA receptors [1] = details: cited from earlier work; for Ki [3H]KA: rat cortical synaptosomes, ref Clausen et al 14
AMPA receptors [2] = details: read-out: Ki [3H]AMPA; rat cortical synaptosomes; ref Clausen et al 14; cited from earlier work
AMPA receptors [3] = assay: [3H]AMPA radioligand binding, rat cortical synaptosomes; details: at a concentration of 100 μM
KA receptors [4] = assay: [3H]KA radioligand binding, rat cortical synaptosomes; details: at a concentration of 100 μM
GluN1/GluN2D = GluN1/GluN2D (Rattus norvegicus, UniProt Q62645); assay: Two-electrode voltage-clamp, Xenopus oocytes expressing GluN1/GluN2D; format: cell-based; details: EC50 GluN2A vs GluN2D
Chain of GluN1/GluN2D (Q62645 28-1323, other chains not shown): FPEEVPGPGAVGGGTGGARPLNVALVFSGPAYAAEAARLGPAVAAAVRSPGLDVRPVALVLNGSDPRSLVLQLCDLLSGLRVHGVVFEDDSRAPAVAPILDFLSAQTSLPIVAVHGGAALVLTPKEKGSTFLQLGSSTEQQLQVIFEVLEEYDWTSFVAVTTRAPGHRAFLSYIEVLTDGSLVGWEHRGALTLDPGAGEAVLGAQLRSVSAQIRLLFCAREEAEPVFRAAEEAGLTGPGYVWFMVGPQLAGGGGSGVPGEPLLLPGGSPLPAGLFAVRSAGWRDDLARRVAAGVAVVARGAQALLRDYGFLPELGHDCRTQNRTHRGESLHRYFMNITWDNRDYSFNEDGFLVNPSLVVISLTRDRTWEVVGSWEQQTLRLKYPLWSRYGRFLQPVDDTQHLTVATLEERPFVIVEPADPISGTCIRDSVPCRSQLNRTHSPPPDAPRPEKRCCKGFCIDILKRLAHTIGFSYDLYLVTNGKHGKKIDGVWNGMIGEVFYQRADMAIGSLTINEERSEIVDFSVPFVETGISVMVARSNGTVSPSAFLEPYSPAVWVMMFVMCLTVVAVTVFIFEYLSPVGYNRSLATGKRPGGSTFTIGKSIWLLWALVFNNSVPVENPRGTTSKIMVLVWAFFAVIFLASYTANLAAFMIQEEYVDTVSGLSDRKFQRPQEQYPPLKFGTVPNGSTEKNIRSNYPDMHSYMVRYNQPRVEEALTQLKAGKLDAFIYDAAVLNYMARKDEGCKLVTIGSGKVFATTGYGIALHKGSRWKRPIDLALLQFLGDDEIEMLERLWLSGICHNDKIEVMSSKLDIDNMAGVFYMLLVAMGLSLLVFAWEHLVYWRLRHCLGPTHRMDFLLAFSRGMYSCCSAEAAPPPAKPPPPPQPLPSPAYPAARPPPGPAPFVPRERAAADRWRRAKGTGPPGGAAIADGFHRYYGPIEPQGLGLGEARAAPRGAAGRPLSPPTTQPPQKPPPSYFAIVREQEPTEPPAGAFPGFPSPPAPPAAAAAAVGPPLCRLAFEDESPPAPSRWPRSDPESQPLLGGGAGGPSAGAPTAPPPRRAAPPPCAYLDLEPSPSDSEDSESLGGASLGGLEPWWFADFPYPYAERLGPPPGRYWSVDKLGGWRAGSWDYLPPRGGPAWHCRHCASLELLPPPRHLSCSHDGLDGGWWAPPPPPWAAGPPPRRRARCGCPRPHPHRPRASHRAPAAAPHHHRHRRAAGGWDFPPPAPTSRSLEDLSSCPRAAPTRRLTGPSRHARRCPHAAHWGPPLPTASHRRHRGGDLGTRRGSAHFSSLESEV

NMDA receptors = details: cited from earlier work

CCCc1cnn(O)c1[C@@H](N)C(=O)O [Compound 3b]
Ki [3H]KA (KA receptors [1]): >100 µM
Ki (AMPA receptors [2]): > 100 µM

CCCC[C@]1(C(=O)O)C[C@H]1[C@H](N)C(=O)O.Cl [Compound 4e, (1S,2R)-2-((S)-amino(carboxy)methyl)-1-butylcyclopropanecarboxylic acid hydrochloride]
binding to AMPA receptors (AMPA receptors [3]): not binding
binding to KA receptors (KA receptors [4]): not binding

C=C(C)[C@H]1CN[C@H](C(=O)O)[C@H]1CC(=O)O [[^3H]KA, kainic acid]
Kd (KA receptors [1]; read-out: Kd of radioligand, radioligand used at 5 nM): 0.0056 µM

CC[C@]1(C(=O)O)C[C@H]1[C@H](N)C(=O)O.Cl [Compound 4c, (1S,2R)-2-((S)-amino(carboxy)methyl)-1-ethylcyclopropanecarboxylic acid hydrochloride]
fold more potent at GluN2D compared to GluN2A (GluN1/GluN2D): 15 fold

CCCC(=CC(N)C(=O)O)CP(=O)(O)O (stereo not shown) [[^3H]CGP 39653]
Kd (NMDA receptors; read-out: Kd of radioligand, radioligand used at 2 nM): 0.006 µM

NC(C(=O)O)c1ccnn1O (racemic) [Compound 3a, (RS)-2-(N-hydroxypyrazol-5-yl)glycine]
Ki [3H]KA (KA receptors [1]): >100 µM
Ki (NMDA receptors; read-out: Ki [3H]CGP39653, rat cortical synaptosomes, ref Clausen et al 14): 10 µM
Ki (AMPA receptors [2]): > 100 µM
